Source: patent US20090232942A1, “Yeast Preparations With Improved Antioxidant Properties and Uses Thereof” (priority 2005, published 2009)
≈ marks a conversion by molar mass, not a printed value.

Tests used:
Format in all cases: biochemical
[1] = Reduction of the DPPH radical, inhibition of absorbance at 523 nm (UV-visible); conditions: for IC50 Mean: n = 3
Text: DPPH. has an intense violet color and this compound remains stable, in the solid form, for years. An antioxidant, proton donor, is capable of reducing this radical (DPPH.→DPPH2), which leads to a decrease in its absorbance. The antioxidant capacity of the compounds is thus determined by evaluating the percentage of inhibition of the absorbance of DPPH. at 523 nm. […] The DPPH. sold by Aldrich and the vitamin C sold by Merck were used. In these tests, the selenium and glutathione concentrations were such that the solution of E2 contained as much selenium and glutathione as that of E1. The method used made it possible to evaluate the overall antioxidant power of the mixture and to compare it to that of reference substances under the same experimental conditions. The antioxidant activity was evaluated by measuring the capacity of the extract to trap the […].

[2] = test system: LDL/VLDL; experiment: Bound LAG TIME: samples incubated 2 hours with LDL/VLDL before Cu2+-induced oxidation; conditions: 1 μM of sample; for Lag Time: bound (2 hours incubation with LDL/VLDL at ambient temperature), 25 μM Cu2+; for Increase of Lag Time 1 (%) / Increase of Lag Time 2 (%): bound; for Increase of Lag Time 1 (%): relative to control (LDL alone); for Increase of Lag Time 2 (%): relative to the unbound sample
Procedure: The LDLs and the various antioxidants were inoculated so that bonds were created. This phenomenon is supposed to represent what happens in the plasma when an antioxidant having the ability to bind is absorbed.
The various samples and the LDL/VLDL preparation were diluted to 1 μM and 70 μg/ml respectively in PBS, then incubated at ambient temperature for 2 hours. Next, 25 μM of Cu^2+ (final concentration in the solution) were added and mixed and the absorbance measurement was carried out every 5 minutes for 6 to 8 hours. The absorbance of the samples was measured at a wavelength of 234 nm over 10 min on a Genesys 5 machine. The tocopherol was used as a positive control given that it is known for binding to the LDL which is generally a tocopherol carrier in plasma.

[3] = test system: LDL/VLDL; experiment: LAG-TIME method: Cu2+-induced oxidation of LDL/VLDL, absorbance at 234 nm, unbound samples; conditions: 1 μM of sample; for Lag Time: 70 μg/ml LDL/VLDL, 25 μM Cu2+, 234 nm; for Increase of Lag Time 1 (%): relative to control (LDL alone)
Procedure: It makes it possible to measure the time required for the added antioxidants to oxidize. […] The effect of the antioxidant present is all the stronger when the lag time is long (in seconds). The kinetic analysis was carried out at 234 nm. The various samples were brought to the same concentration of 1 μm.
The mixture was subjected to Vortex stirring for 5 minutes, then to centrifugation for 10 minutes. […] of supernatant was recovered. This product was ready to use. (sample No. 7 was ground into a fine powder before being mixed with water).
The procedure described in the publication J. Agric. […] This experiment thus made it possible to measure the capacity of the antioxidant tested to inhibit oxidation.
The LDL/VLDL preparation and the various samples were diluted in PBS in order to obtain the desired concentration (70 μg/ml of LDL/VLDL). The control batch contained only the 70 μg/ml LDL/VLDL preparation and PBS. The absorbance of the PBS, the control batch and the other samples was carried out at a wavelength of 234 nm over 10 min on a Genesys 5 machine. Next, 25 μM of Cu^2+ (final concentration in the solution) were added and mixed and the absorbance measurement was carried out every 5 minutes for 6 to 8 hours.

IC50 times higher than that for vitamin C ([1]; 30 min value)	IC50 Mean ([1]; Time 10 min)	IC50 Mean ([1]; Time 20 min)	IC50 Mean ([1]; Time 30 min)	Compound	Lag Time [2]	Increase of Lag Time 1 (%) [2]	Increase of Lag Time 2 (%) [2]	inhibition of LDL oxidation in comparison to the control (in words) [3]	Lag Time [3]	Increase of Lag Time 1 (%) [3]
40 times	292.97 mg/L (≈ 953 µM)	233.84 mg/L (≈ 761 µM)	202.13 mg/L (≈ 658 µM)	N[C@@H](CCC(=O)N[C@@H](CS)C(=O)NCC(=O)O)C(=O)O [Glutathione]						
	5.24 mg/L (≈ 29.8 µM)	5.20 mg/L (≈ 29.5 µM)	5.16 mg/L (≈ 29.3 µM)	O=C1O[C@H]([C@@H](O)CO)C(O)=C1O [Vitamin C, vitamin C]						
				C[Se]CC[C@H](N)C(=O)O [selenomethionine]	6267 s	106%	123%	did not show signs of inhibition	2805 s	−8%
				tocopherol	20940 s	590%	187%	high levels of inhibition	7285 s	140%
